From patent US20230045151A1, “COMPOSITIONS AND METHODS” (MONASH UNIVERSITY, priority 2020, published 2023)

Tests used:
[1] = Targeted metabolomics for PCS after L-tyrosine feeding; type: in vivo, mouse
Method: Mice were fed with L-tyrosine in drinking water (100 mg/kg/day) for 14 days, after which faeces were collected. BALF samples were collected after HDM immunization as per FIG. 1. […] Data represent samples from one experiment. All data are presented as mean values+/−SEM.
Mice received water as a control or L-tyrosine (reagent grade, ≥98% Sigma-Aldrich, St. Louis, Mo.) resuspended in drinking water under sterile conditions at the concentration of 100 mg/kg/day or 500 mg/kg/day (based on the assumption of a mouse consuming 4 ml of water daily). All mice received the treatment 2 weeks prior and throughout the experiment. […] Control mice received 200 μl of saline. For experiments employing antibiotic treatment, 3-week old mice were treated with a combination enrofloxacin (10 mg/kg/day) and amoxicillin with clavulanic acid (1 mg/kg/day) for one week, followed by one week of only amoxicillin with clavulanic acid (1 mg/kg/day). Then, mice were then put on L-tyrosine diet in drinking water for two weeks followed by HDM exposure as before. […]
25 μL of plasma samples were extracted with 100 μL of chilled methanol containing internal standard (PCS-d4 at 500 ng/ml plasma concentration), shaken on ice for 30 min and centrifuged at 4° C. for 10 min. […] Peak integration and quantitation were performed using Tracefinder 4.1 application (Thermo Scientific).

[2] = tested on: C57BL6/J mice exposed intranasally to house dust mite extract (HDM); experiment: HDM animal model of allergic airway inflammation; type: in vivo, mouse
Method: Mice received water as a control or L-tyrosine (reagent grade, ≥98% Sigma-Aldrich, St. Louis, Mo.) resuspended in drinking water under sterile conditions at the concentration of 100 mg/kg/day or 500 mg/kg/day (based on the assumption of a mouse consuming 4 ml of water daily). All mice received the treatment 2 weeks prior and throughout the experiment. […] Control mice received 200 μl of saline. […]. For experiments employing antibiotic treatment, 3-week old mice were treated with a combination enrofloxacin (10 mg/kg/day) and amoxicillin with clavulanic acid (1 mg/kg/day) for one week, followed by one week of only amoxicillin with clavulanic acid (1 mg/kg/day). Then, mice were then put on L-tyrosine diet in drinking water for two weeks followed by HDM exposure as before. During this time, mice were maintained on antibiotic treatment with amoxicillin/clavulanic acid until end of experiment.
Mice were anaesthetised by the inhalation of 4% isoflurane in oxygen for 3-5 minutes. 20 μg of protein content of crude house dust mite extract (HDM) (Greer Laboratories Inc., Lenoir, N.C.) in 20 μl of sterile phosphate-buffered saline (PBS) (Gibco™) was applied intranasally on days 0, 11, 12 and 13. Mice were humanely sacrificed with the lethal dose of pentobarbital (Streuli Pharma AG, Uznach, Switzerland) on day 14.
Bronchoalveolar lavage fluid (BALF) was collected by flushing airways with 0.5 ml PBS supplemented with 0.2% bovine serum albumin (Sigma-Aldrich, St. Louis, Mo.). Total cell number was determined with Coulter Counter (IG Instrumenten-Gesellschaft AG, Basel, Switzerland) while differential cell staining performed on cytospins stained with Diff-Quik solution (Dade Behring, Siemens Healthcare Diagnostics, Deerfield, Ill.). Percentages of neutrophils, macrophages, lymphocytes and eosinophils were assessed by counting 200 cells per sample.
Concentrations of interleukin-4, -5, -13, -17 and IFN-γ in culture supernatants were analysed with mouse Ready-Set-Go!™ ELISA kits (eBioscience™, San Diego, Calif.) according to manufacturer's instructions. To measure the levels of HDM-specific IgG1 and IgE in plasma, half area 96-well plates (Corning) were coated with HDM (10 μg in PBS) overnight at 4° C., followed by the incubation of samples for 2 hours at RT, and the addition of alkaline-phophatase-conjugated goat anti-mouse IgE or IgG1 (both from SouthernBiotech, Birmingham, Ala.; diluted at 1 μg ml-1 in PBS 0.2% BSA) for 2 hours at RT. 4-nitrophenyl phosphate sodium salt hexahydrate (pNPP) (Sigma) was used as a substrate, and the colorimetric reaction was read at 405 nm on the Synergy H1 microplate reader (Biotek, Luzern, Switzerland). To measure the levels of total IgA and IgM as well as hen egg lysozyme (HEL)-specific IgA and IgM in mouse faeces, faecal pellets were homogenized in 0.8 ml cold PBS, centrifuged at 400 g for 5 minutes to remove large debris, filtered through 40 μm cell strainer and centrifuged at 8000 g for 10 minutes to pellet bacteria. The supernatant was collected and loaded for 2 hours at RT on 96-well half area plates coated a day before at 4° C. with anti-IgA (Southern Biotech; 2 μg ml-1), anti-IgM (SouthernBiotech; 2 μg ml-1) or HEL protein (Sigma-Aldrich; 10 μg/ml). This step was followed by the addition of alkalinephophatase-conjugated goat anti-mouse IgA or IgM (both at 1 μg ml-1 in PBS 0.2% BSA) for 2 hours at RT. 4-nitrophenyl phosphate sodium salt hexahydrate (pNPP) (Sigma) was used as a substrate, and the colorimetric reaction was read at 405 nm as before.
Mediastinal lymph nodes were filtered through a 40 μm cell strainer, washed with PBS supplemented with 1% fetal bovine serum and 2 mM EDTA (Invitrogen) (MACS buffer). Lungs were finely cut with scissors, digested with Collagenase IV (Gibco™) in Iscove's modified Dulbecco's medium (IMDM, Gibco™) for 50 min at 37° C. and processed as the lymph nodes.

[3] = L-tyrosine oral in drinking water

SMILES: N[C@@H](Cc1ccc(O)cc1)C(=O)O [L-tyrosine]
- PCS concentrations in the faeces ([1]; L-tyrosine in drinking water 100 mg/kg/day for 14 days): increase
- PCS concentrations in the airways (BALF) ([1]; L-tyrosine in drinking water 100 mg/kg/day, BALF after HDM immunization): increase
- FoxP3+ Treg cells in the lungs [2, 3]: not altered
- numbers of T helper cells in the lungs [2, 3]: not altered
- recruitment of DCs (lungs) [2, 3]: reduced
- recruitment of neutrophils (BALF) [2, 3]: reduced
- recruitment of eosinophils (BALF) ([2]; L-tyrosine oral in drinking water, 2 weeks prior and throughout, vs water): reduced
- IL-5 concentrations in culture supernatants of mediastinal LNs ([2]; L-tyrosine oral in drinking water, not reaching statistical significance): trend towards a decrease
- production of IL-13 by restimulated mediastinal LNs ([2]; L-tyrosine oral in drinking water, restimulated with HDM for 4 days): reduced
- protective effect of L-tyrosine under antibiotic treatment (eosinophils, DCs, IL-5 in BALF) ([2]; L-tyrosine oral plus enrofloxacin and amoxicillin/clavulanic acid (microbiota depletion)): abrogated
- CCL20 concentrations in the BALF ([2]; L-tyrosine-treated wild-type mice exposed to HDM): reduced
